Values quoted from earlier work in patent publication US20220354783A1, “INJECTABLE PROLONGED-ACTION COMPOSITIONS FOR USE IN THE TREATMENT OF NAIL DISEASE AND/OR FOR PROMOTING NAIL GROWTH” (EDIX-O SARL, priority 2018, published 2022).

Tested on: nail diseases
Details: oral forms, 250 mg per day for 6 to 12 weeks

CN(C/C=C/C#CC(C)(C)C)Cc1cccc2ccccc12 [terbinafine]
total healing in clinical studies: 38%
